According to ChEMBL document CHEMBL1128972, “Synthesis of pyridinone ribonucleoside 3-O-phosphoramidites and their incorporation into oligoribonucleotides” (Bioorg Med Chem Lett, 1996):

Test: Cleavage rate was reported
Format: ADME

SMILES	K obs
O=c1ccn(C2O[C@H](CO)[C@@H](O)[C@H]2O)cc1 (stereo partly drawn)	0.095 min⁻¹
O=c1ccccn1C1O[C@H](CO)[C@@H](O)[C@H]1O (stereo partly drawn)	2.01 min⁻¹
O=c1ccn([C@@H]2O[C@H](CO)[C@@H](O)[C@H]2O)c(=O)[nH]1 [URIDINE]	1.17 min⁻¹
